{"source": "paper PMC2739159", "about": "“Evidence for inhibition of cholinesterases in insect and mammalian nervous systems by the insect repellent deet” (BMC Biology, 2009)", "key": {"[1]": {"biological_target": "T1, HuBChE (Homo sapiens, UniProt P06276)", "T1 construct": "gene BCHE; native human enzyme, commercial (Sigma Chemical Co.)", "assay": "Ellman assay, […] nm; global fit of hydrolysis inhibition and carbamoylation", "assay_type": "biochemical", "conditions": "read-out: HuBChE (BTCh)"}, "[2]": {"biological_target": "T2, DmAChE (Drosophila melanogaster, UniProt P07140)", "T2 construct": "gene Ace", "assay": "Ellman assay, […] nm; global fit of hydrolysis inhibition and carbamoylation", "assay_type": "biochemical", "conditions": "read-out: DmAChE (ATCh)"}}, "data": [{"compound": "CCN(CC)C(=O)c1cccc(C)c1", "note": "[deet, N,N-Diethyl-3-methylbenzamide]", "values": [{"measurement": "Ki", "setting": "[1]", "result": "370 ± 50", "unit": "µM"}, {"measurement": "Ki", "setting": "[2]", "result": "1020 ± 30", "unit": "µM"}]}]}
